According to patent US20200187499A1, “SUBSTITUTED BENZYL-4-AMINOPICOLINIC ESTERS AND PYRIMIDINO-4-CARBOXYLIC ESTERS, METHODS FOR THE PRODUCTION THEREOF, AND USE THEREOF AS HERBICIDES AND PLANT GROWTH REGULATORS” (Bayer CropScience Aktiengesellschaft, priority 2017, published 2020):

Test system: AMARE
Experiment: Pre-emergence herbicidal action
Type: in vivo
Conditions: Table 4, pre-emergence (PE), 320 g/ha, scored after 3 weeks
Text: (§1) Seeds of monocotyledonous and dicotyledonous weed plants and crop plants are laid out in sandy loam soil in wood-fiber pots and covered with soil. The compounds of the invention, formulated in the form of wettable powders (WP) or as emulsion concentrates (EC), are then applied to the surface of the covering soil in the form of an aqueous suspension or emulsion at a water application rate equating to 600 to 800 I/ha, with addition of 0.2% wetting agent. After the treatment, the pots are placed in a greenhouse and kept under good growth conditions for the trial plants. The damage to the test plants is scored visually after a test period of 3 weeks by comparison with untreated controls (herbicidal activity in percent (%): 100% activity=the plants have died, 0% activity=like control plants).
(§2) At the same time, inventive compounds leave Gramineae crops such as barley, wheat, rye, millet/sorghum, corn or rice virtually undamaged when applied pre-emergence, even at high active ingredient dosages. In addition, some substances are also harmless to dicotyledonous crops such as soya, cotton, oilseed rape, sugar beet or potatoes. […] The tables below illustrate, in an exemplary manner, the pre-emergence herbicidal action of the compounds according to the invention, the herbicidal activity being stated in percent.

| SMILES | Herbicidal action against AMARE |
| --- | --- |
| Nc1cc(-c2ccc3ccoc3c2F)nc(C(=O)OCc2cccc(Cl)c2)c1Cl [Example I-33] | 90% |
| Nc1cc(-c2ccc3occc3c2)nc(C(=O)OCc2ccccc2C(F)(F)F)c1Cl [Example I-37] | 100% |
| Nc1cc(-c2ccc3ccsc3c2)nc(C(=O)OCc2ccccc2Cl)c1Cl [Example I-44] | 90% |
| Nc1c(F)c(-c2ccc3ccsc3c2)nc(C(=O)OCc2ccc(Cl)cc2)c1Cl [Example I-45] | 100% |
| Nc1cc(-c2ccc3ccsc3c2)nc(C(=O)OCc2ccc(F)c(F)c2F)c1Cl [Example I-46] | 100% |
| Nc1c(F)c(-c2ccc3occc3c2)nc(C(=O)OCc2ccc(F)cc2F)c1Cl [Example I-48] | 90% |
| Nc1c(F)c(-c2ccc3ccoc3c2)nc(C(=O)OCc2ccc(Cl)cc2Cl)c1Cl [Example I-51] | 70% |

Test system: ECHCG
Experiment: Pre-emergence herbicidal action
Type: in vivo
Conditions: Table 4, pre-emergence (PE), 320 g/ha, scored after 3 weeks
Text: as §1, §2

| SMILES | Herbicidal action against ECHCG |
| --- | --- |
| Nc1cc(-c2ccc3ccoc3c2F)nc(C(=O)OCc2cccc(Cl)c2)c1Cl [Example I-33] | 20% |
| Nc1cc(-c2ccc3occc3c2)nc(C(=O)OCc2ccccc2C(F)(F)F)c1Cl [Example I-37] | 90% |
| Nc1cc(-c2ccc3ccsc3c2)nc(C(=O)OCc2ccccc2Cl)c1Cl [Example I-44] | 60% |
| Nc1c(F)c(-c2ccc3ccsc3c2)nc(C(=O)OCc2ccc(Cl)cc2)c1Cl [Example I-45] | 40% |
| Nc1cc(-c2ccc3ccsc3c2)nc(C(=O)OCc2ccc(F)c(F)c2F)c1Cl [Example I-46] | 60% |
| Nc1c(F)c(-c2ccc3occc3c2)nc(C(=O)OCc2ccc(F)cc2F)c1Cl [Example I-48] | 10% |
| Nc1c(F)c(-c2ccc3ccoc3c2)nc(C(=O)OCc2ccc(Cl)cc2Cl)c1Cl [Example I-51] | 20% |

Test system: ABUTH
Experiment: Post-emergence herbicidal action
Type: in vivo
Conditions: Table 6, post-emergence (PO), 320 g/ha, assessed after about 3 weeks
Procedure: (§3) Seeds of monocotyledonous and dicotyledonous weed and crop plants are laid out in sandy loam soil in wood-fiber pots, covered with soil and cultivated in a greenhouse under good growth conditions. 2 to 3 weeks after sowing, the test plants are treated at the one-leaf stage. The compounds of the invention, formulated in the form of wettable powders (WP) or as emulsion concentrates (EC), are then sprayed onto the green parts of the plants in the form of an aqueous suspension or emulsion at a water application rate equating to 600 to 800 l/ha, with addition of 0.2% wetting agent. After the test plants have been left to stand in the greenhouse under optimal growth conditions for about 3 weeks, the action of the preparations is assessed visually in comparison to untreated controls (herbicidal action in percent (%): 100% activity=the plants have died, 0% activity=like control plants). […] At the same time, inventive compounds leave Gramineae crops such as barley, wheat, rye, millet/sorghum, corn or rice virtually undamaged when applied post-emergence, even at high active ingredient dosages. In addition, some substances are also harmless to dicotyledonous crops such as soya, cotton, oilseed rape, sugar beet or potatoes. Some of the compounds according to the invention have high selectivity and are therefore suitable for controlling unwanted vegetation in agricultural crops by the post-emergence method. The tables below illustrate, in an exemplary manner, the post-emergence herbicidal action of the compounds according to the invention, the herbicidal activity being stated in percent.

| SMILES | Herbicidal action against ABUTH |
| --- | --- |
| Nc1cc(-c2ccc3ccoc3c2F)nc(C(=O)OCc2cccc(Cl)c2)c1Cl [Example I-33] | 90% |
| Nc1cc(-c2ccc3occc3c2)nc(C(=O)OCc2ccccc2C(F)(F)F)c1Cl [Example I-37] | 100% |
| Nc1cc(-c2ccc3ccsc3c2)nc(C(=O)OCc2ccccc2Cl)c1Cl [Example I-44] | 100% |
| Nc1c(F)c(-c2ccc3ccsc3c2)nc(C(=O)OCc2ccc(Cl)cc2)c1Cl [Example I-45] | 90% |
| Nc1c(F)c(-c2ccc3occc3c2)nc(C(=O)OCc2ccc(F)cc2F)c1Cl [Example I-48] | 90% |

Same assay, conditions: Table 9, post-emergence (PO), 320 g/ha, assessed after about 3 weeks

| SMILES | Herbicidal action against ABUTH |
| --- | --- |
| Nc1cc(-c2ccc3ccsc3c2)nc(C(=O)OCc2ccc(F)c(F)c2F)c1Cl [Example I-46] | 90% |
| Nc1c(F)c(-c2ccc3ccoc3c2)nc(C(=O)OCc2ccc(Cl)cc2Cl)c1Cl [Example I-51] | 80% |

Test system: AMARE
Experiment: Post-emergence herbicidal action
Type: in vivo
Conditions: Table 6, post-emergence (PO), 320 g/ha, assessed after about 3 weeks
Procedure: as §3

| SMILES | Herbicidal action against AMARE |
| --- | --- |
| Nc1cc(-c2ccc3ccoc3c2F)nc(C(=O)OCc2cccc(Cl)c2)c1Cl [Example I-33] | 100% |
| Nc1cc(-c2ccc3occc3c2)nc(C(=O)OCc2ccccc2C(F)(F)F)c1Cl [Example I-37] | 100% |
| Nc1cc(-c2ccc3ccsc3c2)nc(C(=O)OCc2ccccc2Cl)c1Cl [Example I-44] | 100% |
| Nc1c(F)c(-c2ccc3ccsc3c2)nc(C(=O)OCc2ccc(Cl)cc2)c1Cl [Example I-45] | 90% |
| Nc1c(F)c(-c2ccc3occc3c2)nc(C(=O)OCc2ccc(F)cc2F)c1Cl [Example I-48] | 90% |

Same assay, conditions: Table 9, post-emergence (PO), 320 g/ha, assessed after about 3 weeks

| SMILES | Herbicidal action against AMARE |
| --- | --- |
| Nc1cc(-c2ccc3ccsc3c2)nc(C(=O)OCc2ccc(F)c(F)c2F)c1Cl [Example I-46] | 100% |
| Nc1c(F)c(-c2ccc3ccoc3c2)nc(C(=O)OCc2ccc(Cl)cc2Cl)c1Cl [Example I-51] | 90% |

Test system: SETVI
Experiment: Post-emergence herbicidal action
Type: in vivo
Conditions: Table 6, post-emergence (PO), 320 g/ha, assessed after about 3 weeks
Procedure: as §3

| SMILES | Herbicidal action against SETVI |
| --- | --- |
| Nc1cc(-c2ccc3ccoc3c2F)nc(C(=O)OCc2cccc(Cl)c2)c1Cl [Example I-33] | 80% |
| Nc1cc(-c2ccc3occc3c2)nc(C(=O)OCc2ccccc2C(F)(F)F)c1Cl [Example I-37] | 90% |
| Nc1cc(-c2ccc3ccsc3c2)nc(C(=O)OCc2ccccc2Cl)c1Cl [Example I-44] | 60% |
| Nc1c(F)c(-c2ccc3ccsc3c2)nc(C(=O)OCc2ccc(Cl)cc2)c1Cl [Example I-45] | 30% |
| Nc1c(F)c(-c2ccc3occc3c2)nc(C(=O)OCc2ccc(F)cc2F)c1Cl [Example I-48] | 30% |

Test system: STEME
Experiment: Post-emergence herbicidal action
Type: in vivo
Conditions: Table 6, post-emergence (PO), 320 g/ha, assessed after about 3 weeks
Procedure: as §3

| SMILES | Herbicidal action against STEME |
| --- | --- |
| Nc1cc(-c2ccc3ccoc3c2F)nc(C(=O)OCc2cccc(Cl)c2)c1Cl [Example I-33] | 90% |
| Nc1cc(-c2ccc3occc3c2)nc(C(=O)OCc2ccccc2C(F)(F)F)c1Cl [Example I-37] | 100% |
| Nc1cc(-c2ccc3ccsc3c2)nc(C(=O)OCc2ccccc2Cl)c1Cl [Example I-44] | 100% |
| Nc1c(F)c(-c2ccc3ccsc3c2)nc(C(=O)OCc2ccc(Cl)cc2)c1Cl [Example I-45] | 90% |
| Nc1c(F)c(-c2ccc3occc3c2)nc(C(=O)OCc2ccc(F)cc2F)c1Cl [Example I-48] | 80% |
